Source: patent US20130078317A1, “ZINC-CONTAINING COMPOSITIONS FOR THE TREATMENT OF DISEASES, ILLNESSES AND SYNDROMES ASSOCIATED WITH EXPOSURE TO PORE FORMING TOXINS” (priority 2009, published 2013)
Values joined by “and” are separate entries in the source; they are usually repeats but may differ in a detail not shown here. Identical values can stand only once. “Also recorded” adds a separate entry of the source.

Columns and labels:
hemolytic toxins = conditions: 10 mM D-lactulose; cited from earlier work
[1] = tested on: Carybdea alata venom in isolated red blood cells (2% RBC); format: cell-based, human
[2] = tested on: Chironex fleckeri venom in isolated red blood cells (2% RBC); format: cell-based, human
[3] = tested on: Chironex fleckeri venom in whole blood; format: cell-based, human
[4] = tested on: Carybdea alata venom in isolated red blood cells (2% RBC); experiment: Hemolysis induced by Carybdea alata venom in 2% RBC; format: cell-based, human
[5] = tested on: Chironex fleckeri venom in whole blood; experiment: Hemolysis induced by Chironex fleckeri venom in whole blood; format: cell-based, human; conditions: 5 mM zinc gluconate, compared to untreated cells, FIG. 6
[6] = tested on: Chironex fleckeri venom in whole blood; experiment: Cytokine production in whole blood exposed to Chironex fleckeri venom; format: cell-based, human; conditions: CF venom, 5 mM zinc gluconate, FIG. 7
[7] = tested on: Chironex fleckeri venom in whole blood; experiment: Catecholamine and histamine response in whole blood exposed to Chironex fleckeri venom; format: cell-based, human; conditions: CF venom, 5 mM zinc gluconate, FIG. 8
Chironex fleckeri venom = experiment: Mouse envenomation model with echocardiography/electrocardiography, survival, plasma hemoglobin and potassium (Example 6); format: in vivo
cubozoan porin [8] = conditions: pig, in vivo
cubozoan porin [9] = experiment: Human subjects envenomated by a cubozoan porin, intravenous zinc gluconate (Example 8); format: in vivo; conditions: IV infusion 2.5 to 4 mg per day
cubozoan porin [10] = experiment: Human subjects envenomated by a cubozoan porin, subcutaneous bolus then continuous IV (Example 9); format: in vivo; conditions: subcutaneous bolus 5 mL of 100 mM, then IV 5 mM
cubozoan porin [11] = experiment: Human subjects envenomated by a cubozoan porin, transdermal patch (Example 10); format: in vivo; conditions: iontophoresis, 5 mM at 40 mAmp/min
bacterial porin = experiment: Human subjects exposed to a bacterial porin, intravenous (Example 11); format: in vivo; conditions: IV 2.5 to 4 mg per day
Procedure: In this Example, human subjects are treated with zinc gluconate intravenously after being exposed to a bacterial porin. […] Samples are removed to monitor levels of potassium, cytokines, histamine, and catecholamine, in the blood serum.

viral porin = experiment: Human subjects exposed to a viral porin, intravenous (Example 12); format: in vivo; conditions: IV 2.5 to 4 mg per day
Procedure: In this Example, human subjects are treated with zinc gluconate intravenously after being exposed to a viral porin. […] Samples are removed to monitor levels of potassium, cytokines, histamine, and catecholamine, in the blood serum.

[12] = tested on: mushroom pore-forming toxin; experiment: Human subjects exposed to a mushroom pore-forming toxin, intravenous (Example 13); format: in vivo; conditions: IV 2.5 to 4 mg per day
Procedure: In this Example, human subjects are treated with zinc gluconate intravenously after being exposed to a mushroom pore-forming toxin. […] Samples are removed to monitor levels of potassium, cytokines, histamine, and catecholamine, in the blood serum.

[13] = mice, Zn Gluc then 2000 U venom IV, cardiac blood at death

In the case of OC[C@H]1O[C@@H](O[C@@H]2[C@@H](CO)O[C@](O)(CO)[C@H]2O)[C@H](O)[C@@H](O)[C@H]1O [D-lactulose], the Hemolysis (hemolytic toxins) is given as “dramatic absence of hemolysis”.

For zinc gluconate, the “potassium efflux induced by Carybdea alata venom” value [1] was “fully inhibited”, the “potassium efflux induced by Chironex fleckeri venom” value [2] was “fully inhibited” and the “potassium efflux induced by Chironex fleckeri venom” value [3] was “inhibited”. The “hemolysis induced by Carybdea alata venom” value ([4]; 2% RBC, 5 mM zinc gluconate) was “substantially inhibited”, the “decrease of the total hemolytic capacity of the venom dose” value ([4]; venom dose 6.4 U/ml) was “more than 10 fold” and the “hemolysis induced by Chironex fleckeri venom” value [5] was “substantially less severe hemolysis”. For the same molecule, the “production of EGF” value [6] was “reduced”, the “production of G-CSF” value [6] was “reduced” and the “production of GRO” value [6] was “reduced”. For the same molecule, the “production of IFNα2” value [6] was “reduced”, the “production of PDGF-AA” value [6] was “reduced” and the “production of TNFα” value [6] was “reduced”. For the same molecule, the catecholamine response [7] was “reduced”, the histamine response [7] was “reduced” and the EKG recovery (Chironex fleckeri venom; Mouse 2010-6-09-2, FIG. 10) was “recovered within thirty seconds”. The “time of cessation of ventricular contraction” value (Chironex fleckeri venom; Mouse 2010-6-09-2, FIG. 10) was 10.5 min, the “time of recovery of ventricular contraction” value (Chironex fleckeri venom; Mouse 2010-6-09-2, FIG. 10) was 11 min and the “rebounds of ventricular contraction subsequent to periods of pulseless electrical activity (PEA)” value (Chironex fleckeri venom; mice pre-injected with zinc gluconate, in three mice) was “frequently observed”. The Hemolysis (Chironex fleckeri venom; [13]) was 6% and 4% and 2% and 3%, the “Plasma Hgb” value (Chironex fleckeri venom; [13]) was 860 mg/100 mL and 673 mg/100 mL and 471 mg/100 mL and the survival rates (Chironex fleckeri venom; relative to the untreated mice, FIG. 11) was “higher survival rates”. The “duration of survival post-envenomation (survival times)” value (Chironex fleckeri venom; relative to the untreated mice, intravenous, FIG. 11, P<0.0001) was “longer durations of survival; also recorded: significantly prolonged”, the “normal EKG conductive sequences maintained” value (Chironex fleckeri venom; zinc treated animals exposed to cubozoan PFT) was “for longer periods” and the severity of symptoms (cubozoan porin [8]) was “reduce the severity of symptoms”. The survival (cubozoan porin [8]) was “siginificantly improve survival”, the “likelihood of a lethal outcome” value (cubozoan porin [9]) was “decrease the likelihood a lethal outcome” and the “severity of physiological symptoms associated with the venom poisoning” value (cubozoan porin [9]) was “reduce the severity of physiological symptoms”. For the same molecule, the “likelihood of a lethal outcome” value (cubozoan porin [10]) was “decrease the likelihood a lethal outcome”, the “severity of physiological symptoms associated with the venom poisoning” value (cubozoan porin [10]) was “reduce the severity of physiological symptoms” and the “likelihood of a lethal outcome” value (cubozoan porin [11]) was “decrease the likelihood a lethal outcome”. For the same molecule, the “severity of physiological symptoms associated with the venom poisoning” value (cubozoan porin [11]) was “reduce the severity of physiological symptoms”, the “health of the subject” value (bacterial porin) was “improve the health of the subject” and the “severity of physiological symptoms associated with porin exposure” value (bacterial porin) was “reduce the severity of physiological symptoms”. For the same molecule, the “health of the subject” value (viral porin) was “improve the health of the subject”, the “severity of physiological symptoms associated with porin exposure” value (viral porin) was “reduce the severity of physiological symptoms” and the “health of the subject” value [12] was “improve the health of the subject”. For the same molecule, the “severity of physiological symptoms associated with porin exposure” value [12] was “reduce the severity of physiological symptoms”.
